Test results as given in PubChem BioAssay (NCI).
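Protocol summary: plate cells (96-well), add compound at 5 concentrations, incubate 48 h, interpolate endpoints linearly. Definition used: TGI = concentration required for complete inhibition of growth.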

Tests used:
Assay in all cases: NCI anticancer screen, dose series, 48 h
LOX IMVI melanoma = test system: LOX IMVI melanoma
SF-268 CNS = test system: SF-268 CNS
SK-MEL-28 melanoma = test system: SK-MEL-28 melanoma
T-47D breast = test system: T-47D breast
MDA-MB-435 = test system: MDA-MB-435
NCI-H522 lung = test system: NCI-H522 lung
SNB-19 CNS = test system: SNB-19 CNS
MDA-MB-231 breast = test system: MDA-MB-231 breast
TK-10 renal = test system: TK-10 renal
UACC-257 melanoma = test system: UACC-257 melanoma
NCI-H460 lung = test system: NCI-H460 lung
OVCAR-3 ovarian = test system: OVCAR-3 ovarian
COLO 205 colon = test system: COLO 205 colon
HCT-15 colon = test system: HCT-15 colon
A498 renal = test system: A498 renal
HOP-62 NSCLC = test system: HOP-62 NSCLC
UO-31 renal = test system: UO-31 renal
EKVX NSCLC = test system: EKVX NSCLC
HT29 colon = test system: HT29 colon
MCF7 breast = test system: MCF7 breast
M14 melanoma = test system: M14 melanoma
A549 NSCLC = test system: A549 NSCLC
MDA-N = test system: MDA-N
K-562 leukemia = test system: K-562 leukemia
MALME-3M melanoma = test system: MALME-3M melanoma
HCT-116 colon = test system: HCT-116 colon
NCI/ADR-RES ovarian = test system: NCI/ADR-RES ovarian
OVCAR-5 ovarian = test system: OVCAR-5 ovarian
SK-MEL-5 melanoma = test system: SK-MEL-5 melanoma
SW-620 colon = test system: SW-620 colon
SF-295 CNS = test system: SF-295 CNS
DU-145 prostate = test system: DU-145 prostate
UACC-62 melanoma = test system: UACC-62 melanoma
CCRF-CEM leukemia = test system: CCRF-CEM leukemia
U251 CNS = test system: U251 CNS
PC-3 prostate = test system: PC-3 prostate
ACHN renal = test system: ACHN renal
CAKI-1 renal = test system: CAKI-1 renal
IGROV1 ovarian = test system: IGROV1 ovarian
SK-OV-3 ovarian = test system: SK-OV-3 ovarian
SK-MEL-2 melanoma = test system: SK-MEL-2 melanoma
OVCAR-8 ovarian = test system: OVCAR-8 ovarian
786-0 renal = test system: 786-0 renal
HCC-2998 colon = test system: HCC-2998 colon
RPMI-8226 leukemia = test system: RPMI-8226 leukemia
SR leukemia = test system: SR leukemia
HOP-92 NSCLC = test system: HOP-92 NSCLC
OVCAR-4 ovarian = test system: OVCAR-4 ovarian
NCI-H23 lung = test system: NCI-H23 lung
HL-60(TB) leukemia = test system: HL-60(TB) leukemia
MOLT-4 leukemia = test system: MOLT-4 leukemia
SF-539 CNS = test system: SF-539 CNS
HS 578T breast = test system: HS 578T breast
SN12C renal = test system: SN12C renal
SNB-75 CNS = test system: SNB-75 CNS
RXF 393 renal = test system: RXF 393 renal

COc1ccc(-c2oc3ccccc3c(=O)c2O)cc1OC
TGI (LOX IMVI melanoma): > 100 µM | TGI (SF-268 CNS): 53 µM | TGI (SK-MEL-28 melanoma): > 100 µM | TGI (T-47D breast): > 100 µM | TGI (MDA-MB-435): > 100 µM | TGI (NCI-H522 lung): > 100 µM | TGI (SNB-19 CNS): > 100 µM | TGI (MDA-MB-231 breast): > 100 µM | TGI (TK-10 renal): 76.8 µM | TGI (UACC-257 melanoma): > 100 µM | TGI (NCI-H460 lung): > 100 µM | TGI (OVCAR-3 ovarian): > 100 µM | TGI (COLO 205 colon): > 100 µM | TGI (HCT-15 colon): > 100 µM | TGI (A498 renal): 71.5 µM | TGI (HOP-62 NSCLC): 47.4 µM | TGI (UO-31 renal): > 100 µM | TGI (EKVX NSCLC): > 100 µM | TGI (HT29 colon): > 100 µM | TGI (MCF7 breast): > 100 µM | TGI (M14 melanoma): > 100 µM | TGI (A549 NSCLC): > 100 µM | TGI (MDA-N): > 100 µM | TGI (K-562 leukemia): > 100 µM | TGI (MALME-3M melanoma): > 100 µM | TGI (HCT-116 colon): > 100 µM | TGI (NCI/ADR-RES ovarian): > 100 µM | TGI (OVCAR-5 ovarian): > 100 µM | TGI (SK-MEL-5 melanoma): > 100 µM | TGI (SW-620 colon): > 100 µM | TGI (SF-295 CNS): 35.1 µM | TGI (DU-145 prostate): > 100 µM | TGI (UACC-62 melanoma): > 100 µM | TGI (CCRF-CEM leukemia): > 100 µM | TGI (U251 CNS): 23.4 µM | TGI (PC-3 prostate): > 100 µM | TGI (ACHN renal): > 100 µM | TGI (CAKI-1 renal): > 100 µM | TGI (IGROV1 ovarian): > 100 µM | TGI (SK-OV-3 ovarian): > 100 µM

CC(=O)O[C@H]1C(=O)[C@@]2(C)[C@H]([C@H](OC(=O)c3ccccc3)[C@]3(O)C[C@H](OC(=O)[C@H](O)[C@@H](NC(=O)c4ccccc4)c4ccc5ccccc5c4)C(C)=C1C3(C)C)[C@]1(OC(C)=O)CO[C@@H]1C[C@@H]2O
TGI (SK-MEL-2 melanoma): 0.173 µM | TGI (LOX IMVI melanoma): 6.59 µM | TGI (OVCAR-8 ovarian): 25.8 µM | TGI (SF-268 CNS): > 50 µM | TGI (SK-MEL-28 melanoma): > 23.1 µM | TGI (T-47D breast): > 50 µM | TGI (MDA-MB-435): 0.0238 µM | TGI (SNB-19 CNS): > 31.8 µM | TGI (MDA-MB-231 breast): 1.8 µM | TGI (TK-10 renal): 18.6 µM | TGI (UACC-257 melanoma): 8.22 µM | TGI (786-0 renal): 8.59 µM | TGI (NCI-H460 lung): 5.19 µM | TGI (COLO 205 colon): 0.319 µM | TGI (HCC-2998 colon): 0.228 µM | TGI (RPMI-8226 leukemia): 1.87 µM | TGI (HCT-15 colon): 8.4 µM | TGI (A498 renal): 6.96 µM | TGI (SR leukemia): 1.85 µM | TGI (HOP-62 NSCLC): 0.362 µM | TGI (HOP-92 NSCLC): > 14 µM | TGI (UO-31 renal): > 50 µM | TGI (OVCAR-4 ovarian): > 41 µM | TGI (EKVX NSCLC): > 50 µM | TGI (HT29 colon): 1.96 µM | TGI (MCF7 breast): 0.879 µM | TGI (M14 melanoma): 1.85 µM | TGI (A549 NSCLC): > 42.1 µM | TGI (MDA-N): 0.0202 µM | TGI (K-562 leukemia): 2.05 µM | TGI (MALME-3M melanoma): 14.7 µM | TGI (HCT-116 colon): 0.237 µM | TGI (NCI/ADR-RES ovarian): > 50 µM | TGI (OVCAR-5 ovarian): 2 µM | TGI (NCI-H23 lung): > 45.4 µM | TGI (HL-60(TB) leukemia): 0.0327 µM | TGI (SK-MEL-5 melanoma): 12.9 µM | TGI (SW-620 colon): > 50 µM | TGI (SF-295 CNS): 1.89 µM | TGI (MOLT-4 leukemia): 1.09 µM | TGI (SF-539 CNS): 0.152 µM | TGI (HS 578T breast): 0.148 µM | TGI (SN12C renal): 17.2 µM | TGI (SNB-75 CNS): 2.15 µM | TGI (RXF 393 renal): 1.77 µM | TGI (UACC-62 melanoma): 12.7 µM | TGI (CCRF-CEM leukemia): > 11.2 µM | TGI (U251 CNS): 1.46 µM | TGI (PC-3 prostate): > 50 µM | TGI (ACHN renal): > 50 µM | TGI (CAKI-1 renal): > 41 µM | TGI (IGROV1 ovarian): > 42.3 µM | TGI (SK-OV-3 ovarian): 0.836 µM
